US20260033491A1, “FUNGAL SPORE FORMULATIONS INCLUDING CARRIER FLUIDS” (priority 2018, published 2026)
Like-named read-outs stand apart in the source and are kept apart here. Marks after values point to notes of the source that are not given here.

Columns and labels:
Type in all cases: cell-based
[1] = tested on: Purpureocillium lilacinum spores; assay: Spore viability (germination rate) of Purpureocillium lilacinum spores dispersed in fluid and stored at 30° C.
Protocol: (§1) 3 g of Purpureocillium lilacinum pure spore powder were transferred into a formulation vessel (IKA Type DT-20 mixing vessel with dispersion tool for Ultra Turrax) using a sterile spoon. 12 mL of fluid were added into the respective formulation vessel and dispersed using ultra turrax tube drive control for 1 min at 3000 rpm; change direction after 30 sec. After this 2.8 mL were transferred in four sample bottles (Wheaton Serum vial, Type I) leaving little headspace and closed tight using crimpneck caps (Macherey—Nagel type N 13). Afterwards all sample bottles were transferred to an incubator set at 30° C. and stored for a given time.
In regular intervals a sample was retrieved from the storage location and analyzed for spore viability. For this purpose, the original samples were thoroughly homogenized. Aliquots of 0.25 g or 250 μL of each sample were transferred into 50 mL falcon tubes. The tubes were filled up to 25 g using a sterile aqueous solution containing 2% Tween 80 and homogenized by vortexing to achieve the first dilution step (1:100 dilution). This dilution was used for further dilution and spotting on agar.
(§2) For these samples, an alternative dispersion/dilution method was applied where the oil phase was stripped from the spores first: 0.25 g or 250 μL of sample are weighted into a 2 mL Eppendorf tube, and 0.5 mL of 2% Tween 80 is added, and the mixture is transferred into an Eppendorf centrifuge where it is centrifuged for 1 min at 10.000 rpm. The supernatant (=upper oily phase) is discarded by using a pipette. […] 250 μL or 0.25 g of each sample were transferred into a sterile 50 mL Falcon tube. The tubes were filled up to 25 g using a sterile aqueous solution containing 2% Tween 80 and homogenized by vortexing to achieve the first dilution step (1:100 dilution). This dilution was used for further dilution and spotting on agar.
(§3) For evaluation of spore germination rate prepare a 1:30000 dilution based on the 1:100 dilution achieved by multiple automated dilution (pipetting robot, 96 well plate). Afterwards 12×12 cm agar plates were taken and spotted with 10 times 5 μL of each sample using an automated 12-Channel pipet. Wait until liquid is soaked up by agar and transfer agar plate to an incubator and incubate at 25° C. for 17 hours. Open the plate and place it under the microscope. Randomly chose one area per spot and record the number of germinated and non-germinated spores that are within the designated field. At least 200 spores per sample need to be evaluated. If needed count more than one field per spot.

[2] = tested on: Beauveria bassiana spores; assay: Spore viability (germination rate) of Beauveria bassiana spores dispersed in fluid and stored at 30° C.; conditions: Beauveria bassiana spores in fluid; for spore viability [%] after 2 w (14 d) / spore viability [%] after 5 w (35 d): storage at 30° C.
Protocol: as §1, with “1.5 g” for “3 g”, “of Beauveria bassiana” for “of Purpureocillium lilacinum”, “spoon. 13.5” for “spoon. 12”, “N 13)” for “N 13).”
(§4) In regular intervals a sample was retrieved from the storage location and analyzed for spore viability. Therefore the original samples were thoroughly homogenized. Aliquots of 0.25 g or 250 μL of each sample are transferred into 50 mL falcon tubes. The tubes were filled up to 25 g using a sterile aqueous solution containing 2% Tween 80 and homogenized by vortexing to achieve the first dilution step (1:100 dilution). This dilution was used for further dilution and spotting on agar.
as §2, with “phase is” for “phase was”, “sample are” for “sample were”, “dilution is” for “dilution was”
as §3, with “1:15000” for “1:30000”, “are” for “were”, “20°” for “25°”

[3] = tested on: Penicillium bilaii spores; assay: Spore viability (germination rate) of Penicillium bilaii spores dispersed in fluid and stored at 30° C.; conditions: Penicillium bilaii spores in fluid; for spore viability [%] 6 w@30° C. (41-43 d) / spore viability [%] 3 m@30° C. (83-85 d): storage at 30° C.
Protocol: as §1, with “1.5 g” for “3 g”, “of Penicillium bilaii” for “of Purpureocillium lilacinum”, “spoon. 13.5” for “spoon. 12”, “N 13)” for “N 13).”
as §4
Not all samples mixed well or mixed at all in 2% Tween 80. For these samples, an alternative dispersion/dilution method was applied where the oil phase is stripped from the spores first: 0.25 g or 250 μL of sample are weighted into a 2 mL Eppendorf tube, and 0.5 mL of 2% Tween 80 is added, and the mixture is transferred into an Eppendorf centrifuge where it is centrifuged for 1 min at 10.000 rpm. The supernatant (=upper oily phase) is discarded by using a pipette. Afterwards 250 μL of Breakthru S 240 are added and the spores are well dispersed. 250 μL or 0.25 g of each sample are transferred into a sterile 50 mL Falcon tube. The tubes were filled up to 25 g using a sterile aqueous solution containing 2% Tween 80 and homogenized by vortexing to achieve the first dilution step (1:100 dilution). This dilution is used for further dilution and spotting on agar.
as §3, with “1:15000” for “1:30000”, “are” for “were”, “20°” for “25°”

[4] = P. lilacinum spores in fluid, storage at 30° C.
[5] = P. lilacinum spores in fluid, storage at 30° C., 12-15 d
[6] = P. lilacinum spores in fluid, storage at 30° C., 27-28 d
[7] = P. lilacinum spores in fluid, storage at 30° C., 51-55 d

SMILES	spore viability [%] at day 1 ([1]; P. lilacinum spores in fluid)	spore viability [%] after 5-6 w (35-40 d) [1, 4]	spore viability [%] after 3 m (87-92 d) [1, 4]	spore viability [%] at day 1 [2]	spore viability [%] after 2 w (14 d) [2]	spore viability [%] after 5 w (35 d) [2]	spore viability [%] initial (1-2 d) [3]	spore viability [%] 6 w@30° C. (41-43 d) [3]	spore viability [%] 3 m@30° C. (83-85 d) [3]	spore viability [%] after 2 w (12-15 d) [1, 5]	spore viability [%] after 1 m (27-28 d) [1, 6]	spore viability [%] after 2 m (51-55 d) [1, 7]	spore viability [%] taken after 7 m of storage [1, 4]	spore viability [%] after 1 m (27-28 d) [1]	spore viability [%] after 2 m (51-55 d) [1]	spore viability [%] after 2 w (12-15 d) [1]
CCCCOC(=O)CC(CC(=O)OCCCC)(OC(C)=O)C(=O)OCCCC [Acetyltributylcitrat, O-Acetyl citric acid tributyl ester]	98.9%	98.0%	87.5%	85.5%	76.7%	58.8%	98.4%	83.8%	60.6%							
CC(C)CCCCCCOC(=O)C1CCCCC1C(=O)OCCCCCCC(C)C (stereo not shown) [Agnique AE829, 1,2-Cyclohexane dicarboxylic acid diisononyl ester]				89.7%	74.9%	57.8%	95.3%	89.4%	71.9%	97.3%	96.5%	89.8%				
CC(C)OC(=O)CCCCC(=O)OC(C)C [Crodamol DA, Diisopropyl adipate]	98.2%									94.3%	95.0%	68.2%	51.3* %			
CCCCCOC(=O)CC [Pentyl Propionate, Propionic acid Pentyl ester]	99.1%	94.6%	16.1%													
CCCCCC[C@@H](O)C/C=C\CCCCCCCC(=O)OC [Radia 7081, Ricinolic acid methylester]														95.8%	88.6%	94.7%
CCCCCCCCCCCC(=O)OCC(CC)CCCC (stereo not shown) [Radia 7127, 2-Ethylhexyl laurate]	99.1%			91.3%	76.3%	68.4%	97.1%	96%	77.9%	99.0%	98.3%	88.4%	40.6* %			
CCCCCCCC/C=C\CCCCCCCC(=O)OCC(CC)CCCC (stereo not shown) [Radia 7331, 2-Ethylhexyl oleate]				91.5%	81.4%	66.3%	97.1%	91.4%	75.7%	97.9%	95.9%	85.9%				
